What was measured:
Plasmodium chabaudi [1] = experiment: Progression, resolution and survival of lethal P. chabaudi infection (10^6 pRBC i.v.) in A/J mice; assay type: in vivo; conditions: Cys alone 60 mg/kg, days 0-3
Procedure: (§1) A/J and C57BL/6 (B6) mice were purchased from the Jackson Laboratories (Bar Harbor, Me.) and were housed at McGill University according to the guidelines of the Canadian Council on Animal Care. An LDH virus-free isolate of P. chabaudi AS was maintained by weekly passage in A/J mice. Mice were infected intravenously into the tail vein (i.v.) with 10^6 or 10^7 pRBC suspended in pyrogen-free saline. Following infection, the percentage of pRBC was determined daily on thin blood smears stained with Dif-Quik™ (Dade Behring, Newark, Del.), as described (Fortin A, et al. (2001) Proc Natl Acad Sci USA 98: 10793-10798).
(§2) Cysteamine hydrochloride (Sigma, Burlington ON) was prepared in PBS. Chloroquine hydrochloride, artesunate and dihydroartemisinin were provided by Dafra Pharmaceuticals; chloroquine was prepared in PBS, artesunate and DHA were prepared in 5% sodium bicarbonate and diluted in water to appropriate concentrations. All solutions were prepared fresh daily, filter sterilized and injections were performed intra-peritoneally (i.p) or subcutaneously (s.c.) for 4 days or according to treatment regimen. Mice were weighed prior to treatment to determine appropriate doses and injection volumes ranged from 100-400 μL per mouse. In the case of animals treated with two drugs, artemisinin derivatives were administered first (due to the short half life of cysteamine), followed by cysteamine 5-10 minutes later on alternate sides. Untreated control animals were injected with PBS alone.
It was investigated if low dose Cys could potentiate standard doses of ART that show therapeutic activity in vivo and concurrently determined possible long-term effects on patent parasitemia, resolution of infection and survival in a lethal infection model. In this protocol, mice were infected with 10^6 pRBC P. chabaudi (i.v.) and treated with Cys (60 mg/kg) and/or ART (0.5, 1, 2, 5 and 10 mg/kg) for 4 days (days 0-3), while blood parasitemia and survival were followed for 22 days. Control animals treated with either PBS or Cys alone (60 mg/kg) developed high parasite burdens, which peaked at day 6, and all mice succumbed to the infection by day 7 (FIGS. 5A and 5C). […] Likewise, although all mice treated with 0.5 mg/kg ART succumbed to the infection early (day 8), mice additionally receiving Cys survived until day 9; moreover, addition of Cys to 1.0 mg/kg ART completely rescued animals from lethality of infection, with 100% survival in this group (FIGS. 5B, 5C).

Plasmodium chabaudi [2] = experiment: 4-day test, P. chabaudi (10^7 pRBC i.v.) in pantetheinase-deficient A/J mice, blood parasitemia days 4 and 5; assay type: in vivo; conditions: A/J mice
Procedure: as §1, §2
Groups with normally distributed data points were compared using parametric unpaired t-tests, while groups with non-Gaussian distributions were compared using non-parametric Mann-Whitney tests. Survival differences were analyzed using the Log-Rank test. […] Standard error of percent inhibition was calculated from individual mice compared to the mean parasitemia level of the control group.
The effect of Cys on the potency and efficacy of the anti-malarial artemisinin derivatives was tested. […] Synergy (Tallarida R J (2001) J Pharmacol Exp Ther 298: 865-872) is defined as a total anti-malarial activity (reduction in blood parasitemia compared to untreated controls in a standard 4-day test) of the two compounds administered together being greater than the sum of the independent activities of the two compounds given alone. We tested combinations of Cys and either artesunate (ART) or dihydroartemisinin (DHA), the bioactive form of artemisinin. Pantetheinase-deficient mice were infected with P. chabaudi (10^7 pRBC, i.v.) and treated with Cys (170 mg/kg) and/or sub-optimal doses of ART (0.2 or 0.5 mg/kg) (FIG. 3A) or DHA (0.15 or 0.3 mg/kg) (FIG. 3B) from day 0-3 and parasitemia was monitored on days 4 and 5. […] Potentiation of the anti-malarial activity of ART (0.5 mg/kg) by Cys was also clearly evident in these C57BL/6 mice at both days 4 and 5 post-infection, with combined treatment causing a 65-71% reduction in parasitemia compared to PBS controls, greater than either compound tested alone (13-29%) (TABLE 1).
It was subsequently examined whether Cys potentiation of ART was dose dependent. Initially, Cys doses of 60, 100, 140 and 180 mg/kg were tested with a sub-optimal ART dose of 0.2 mg/kg. The drugs were administered from day 0-3 post infection, parasitemia was counted at day 4 and day 5 and the percent inhibition was calculated compared to PBS-treated controls (FIG. 4A). At 0.2 mg/kg, ART alone inhibits parasitemia by ˜20% (day 4) and 40% (day 5) while inhibition by Cys alone was partially dose dependent (varying between 10% and 25%). […] It was also assessed whether Cys could potentiate low doses of artesunate which, given alone, have no significant effect on parasitemia. In this experiment, Cys (170 mg/kg) was administered in combination, or not, with increasing doses of ART (0.05, 0.1, 0.2, 0.4 mg/kg) in the same 4-day experimental protocol.

[3] = cysteamine 170 mg/kg i.p. alone, days 0-3

Compound: NCCS [Cysteamine]
- day at which parasite burdens peaked (Plasmodium chabaudi [1]): 6 days
- day by which all mice succumbed to the infection (Plasmodium chabaudi [1]): ≤ 7 days
- Inhibition of parasitemia Day 4 (Plasmodium chabaudi [2]; [3]): 28 % PBS control
- Inhibition of parasitemia Day 5 (Plasmodium chabaudi [2]; [3]): 23 % PBS control
- Cys doses as low as which show potentiation of the ART effect (Plasmodium chabaudi [2]; lower Cys dose range (20, 40 and 60 mg/kg) with ART (FIG. 4B)): 20 to 40 mg/kg
